The text below walks through data of US12145947B2, “Pyrimidine based modulators and uses thereof” (Quanta Therapeutics, Inc., priority 2022, dated 2024).

Assay [1] deals with T1, GST-tagged KRAS-G12D (2-169) (Homo sapiens, UniProt P01116, G12D).
T1 construct: GST-tagged KRAS-G12D (2-169, Reaction Biology, MSC-11-539); purchased Reaction Biology MSC-11-539 (KRAS G12D); MSC-11-502 (SOS1cat)
Briefly: Nucleotide exchange assay (NEA), SOS-mediated, HTRF, KRAS G12D. The assay is classed as biochemical. The following applies: Table 4; IC50 extracted at 30 min. The text has this:
This activity is tightly regulated by GTPase activating proteins (GAPs) and guanine nucleotide exchange factors (GEFs). GEFs, such as SOS1/2, activate Ras proteins by exchanging GDP for GTP, thus returning Ras to its active conformation (Simanshu, Nissley, & McCormick, 2017). […] Homogenous time resolved fluorescence (HTRF) was used to detect SOS-mediated binding of a fluorescent GTP analog, GTP-DY-647P1 (Jena Biosciences NU-820-647P1) to GST-tagged KRAS-G12D (2-169, Reaction Biology, MSC-11-539) or to GST-tagged KRAS-G12V (2-169, Reaction Biology, MSC-11-540).
GST-tagged KRAS-G12D (2-169) and anti-GST MAb Tb Cryptate Gold (CisBio 61GSTTLB) were diluted into assay buffer (20 mM HEPES, pH 7.3, 150 mM NaCl, 5 mM MgCl2, 0.05% BSA 0.0025% NP40, 1 mM DTT) to prepare a 2.5× donor solution. 5× compound was added to the protein mixture and incubated for 1 h at RT. 2.5× acceptor solution containing SOSIcat (564-1049, Reaction Biology MSC-11-502) and GTP-DY-647P1 were then added to the donor KRAS mixture such that the final concentration of the reaction contained 5 nM GST-tagged KRAS-G12D (2-169), 20 nM SOScat, and 150 nM GTP. The reaction was monitored using at RT with the Envision multimode plate reader (Ex/Em 337/665, […]) up to 90 minutes at 5 minute intervals. To monitor KRAS-G12V Sos-mediated nucleotide exchange, 80 nM SOS was added to reaction instead of 20 nM. All other components were the same as previously described. Data was blanked to reactions without SOS1 and % inhibition was calculated such that DMSO only=0% and blank=100%. Curve fitting was done using a 4 parameter fit. Reported IC50 values were extracted at 30 min and 90 min for the KRAS-G12D and KRAS-G12V assays, respectively.
Curve fitting was done using a 4 parameter fit. NEA KRAS G12D IC50 (uM) values of selected compounds are depicted in Table 2 with compounds having a value <0.01 uM as ++++; >0.01 uM to 0.1 uM as +++; >0.1 uM to 1 uM as ++; >1 uM to 20 uM as +; and >20 uM as NA.
Background: TR-FRET usually uses a lanthanide donor and a delayed reading to cut background.

The next assay has as its target T2, KRAS G12D/RAF1 (Homo sapiens, UniProt P01116, G12D).
T2 construct: His6-MBP (N, cleaved yes); made in house; host or cells: E. coli
Description: Protein-protein interaction (PPI) HTRF assay KRAS G12D/RAF1. It is filed as binding. Conditions: Table 4. As to the method: Biotinylated KRAS wt and KRAS G12DNV proteins were expressed and purified in conditions similar to those previously reported (Tran, et al., 2021) (Zhang, et al., 2020). Briefly, KRAS (1-169) proteins were expressed in E. coli at 18° C. with an upstream TEV cleavage site (ENLFYQS (SEQ ID NO: 6)) followed an Avi tag sequence ([…] (SEQ ID NO: 7)). KRAS expression constructs contained both a His6 (SEQ ID NO: 8) and maltose-binding protein (MBP) tags at the N-terminus for Ni-NTA column purification prior to overnight TEV cleavage and MBP column purification. The avi-tagged NRAS expression construct contained both a His6 tag (SEQ ID NO: 8) and SUMO cleavage sige at the N-terminus for Ni-NTA column purification followed by His-ULPi digestion overnight. All avi-tagged RAS proteins were dialyzed into buffer containing ATP, biotin, and BirA followed by purification over a second Ni-NTA column and then run over a size exclusion HiLoad™ 26/600 Superdex™ column in 20 mM HEPES, pH 7.5, 300 mM NaCl, 5 mM MgCl2, and 1 mM TCEP. Fractions containing the protein of interest were pooled, concentrated, and confirmed by intact mass spectrometry. To prepare ‘GTP’ loaded KRAS and NRAS, biotinylated KRAS or NRAS was nucleotide exchanged from GDP-bound protein to GppNHp-bound (Jena Biosciences, NU-401-50) protein in the presence of alkaline phosphatase and excess GppNHp as previously described and the resulting nucleotide content was confirmed by HPLC reverse phase analytical chromatography (Donohue, et al., 2019) (Tran, et al., 2021).
His-tagged RAF1 (52-131) was similarly expressed in E. coli at 18° C. overnight with an upstream TEV cleavage site. His-tagged RAF1 expression construct contained both a His6 (SEQ ID NO: 8) and MBP tags at the N-terminus for Ni-NTA column purification followed by MBP-tagged TEV digestion overnight. RAF1 protein samples were further purified over a MBP column followed by a Ni-NTA column and a second MBP column. The fractions containing the protein of interest were pooled, concentrated, and further purified over a HiLoad™ 16/600 Superdex™ 75 pg size exclusion column into 20 mM HEPES, pH8.0, 200 mM NaCl, 5 mM TCEP.
When RAS proteins are in the active GTP-bound conformation, they bind the effector protein RAF1 at the N-terminus Ras-binding domain (RBD, residues 52-131) (Tran, et al., 2021). Homogenous time resolved fluorescence (HTRF) was used to monitor the interaction between wt or mutant KRAS and RAF1 or wt NRAS and RAFT. Compounds were assayed in the presence of KRAS G12D/V and RAF1 versus wt KRAS to assess activity against mutant and w.t. KRAS. Similarly, compounds were then assayed in the presence of w.t. NRAS and RAF1 to assess RAS isoform selectivity. In all assay formats, His-tagged RAF1 protein was incubated with the HTRF donor, anti-6His (“6His” disclosed as SEQ ID NO: 8) Tb Cryptate gold (Cisbio 61DB10RDF), and biotinylated RAS proteins were incubated with the HTRF acceptor, streptavidin-d2 (CisBio 610SADLA). The intensity of the fluorescence signal emitted is proportional to binding between the two proteins. The donor solution was prepared by mixing 16 nM His-tagged RAF1 in protein dilution buffer with 1:100 anti-6His (“6His” disclosed as SEQ ID NO: 8) Tb cryptate in PPI-Terbium detection buffer. 16 nM biotinylated RAS protein was diluted into protein dilution buffer (50 mM Tris-HCl pH 7.5, 150 mM NaCl, 0.1 mM MgCl2, 1 mM TCEP, 0.005% Tween20) and mixed with 1:2000 Streptavidin-d2 diluted in PPI-Terbium detection buffer (CisBio 61DBTORDF). 50× compound in DMSO was mixed with 16 nM KRAS-acceptor solution and incubated for 30 minutes at room temperature. After compound pre-incubation with KRAS, the RAF1 donor solution was added to the KRAS-acceptor solution and incubated for 1 hour at room temperature. The fluorescence signal emitted was monitored at 665 nm and 615 nm using an Envision multimode plate reader. […]

T1 sequence (P01116 2-169 isoform P01116-2 G12D): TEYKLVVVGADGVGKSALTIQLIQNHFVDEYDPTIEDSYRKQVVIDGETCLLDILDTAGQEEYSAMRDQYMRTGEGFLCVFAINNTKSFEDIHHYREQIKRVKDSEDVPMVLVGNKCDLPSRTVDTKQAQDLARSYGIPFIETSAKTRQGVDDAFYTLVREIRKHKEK
T2 sequence (P01116 with tags, fused parts or gaps isoform P01116-2 G12D): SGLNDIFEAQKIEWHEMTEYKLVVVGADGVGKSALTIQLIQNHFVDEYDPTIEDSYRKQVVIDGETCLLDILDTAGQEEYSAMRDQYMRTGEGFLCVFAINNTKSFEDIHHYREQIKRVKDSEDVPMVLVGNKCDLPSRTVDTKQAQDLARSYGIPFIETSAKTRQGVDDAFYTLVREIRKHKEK

As for `N#Cc1c(N2C[C@H]3CC[C@@H](C2)N3)nc(OCC2(CN3CCOCC3)CC2(F)F)nc1N1CC2(CCc3sc(N)c(C#N)c32)C1` (stereo partly drawn) [Compound 68, 2-amino-1-[5-cyano-2-[[2,2-difluoro-1-(morpholinomethyl)cyclopropyl]methoxy]-6-[(1R,5S)-3,8-diazabicyclo[3.2.1]octan-3-yl]pyrimidin-4-yl]spiro[5,6-dihydrocyclopenta[b]thiophene-4,3′-azetidine]-3-carbonitrile], the figures for the IC50 (in assay [1]; against KRAS G12D/RAF1) were less than 10 nM and 1000 to 10000 nM, respectively.

`N#Cc1c(N2C[C@H]3CC[C@@H](C2)N3)nc(OCc2n[nH]cc2C(F)(F)F)nc1N1CC2(CCc3sc(N)c(C#N)c32)C1` [Compound 106, 2-amino-1′-[5-cyano-6-[(1R,5S)-3,8-diazabicyclo[3.2.1]octan-3-yl]-2-[[4-(trifluoromethyl)-1H-pyrazol-3-yl]methoxy]pyrimidin-4-yl]spiro[5,6-dihydrocyclopenta[b]thiophene-4,3′-azetidine]-3-carbonitrile]: the IC50 – broadly, the concentration needed to halve the response being measured – in assay [1] was in the range of 10 to 100 nM; at KRAS G12D/RAF1 it was 10000 to 100000 nM.

Turning to `C[C@@H]1COCCN1CC1(COc2nc(N3C[C@H]4CC[C@@H](C3)N4)c(C#N)c(N3CC4(CCc5sc(N)c(C#N)c54)C3)n2)CC1` [Compound 82, 2-amino-1′-[5-cyano-6-[(1R,5S)-3,8-diazabicyclo[3.2.1]octan-3-yl]-2-[[1-[[(3R)-3-methylmorpholin-4-yl]methyl]cyclopropyl]methoxy]pyrimidin-4-yl]spiro[5,6-dihydrocyclopenta[b]thiophene-4,3′-azetidine]-3-carbonitrile], the IC50 in assay [1] fell in the range of 100 to 1000 nM; against KRAS G12D/RAF1 it was 10000 to 100000 nM.

Regarding `N#Cc1c(N2C[C@H]3CC[C@@H](C2)N3)nc(OCc2n[nH]cc2Br)nc1N1CC2(CCc3sc(N)c(C#N)c32)C1` [Compound 102, 2-amino-1′-[2-[(4-bromo-1H-pyrazol-3-yl)methoxy]-5-cyano-6-[(1S,5R)-3,8-diazabicyclo[3.2.1]octan-3-yl]pyrimidin-4-yl]spiro[5,6-dihydrocyclopenta[b]thiophene-4,3′-azetidine]-3-carbonitrile], the IC50 was less than 10 nM in assay [1] and 10000 to 100000 nM against KRAS G12D/RAF1.

For `N#CNC1CCCN(c2nc(OC[C@@]34CCCN3C[C@H](F)C4)nc(N3CC4(CCc5sc(N)c(C#N)c54)C3)c2F)C1` (stereo partly drawn) [Compound 54, [1-[6-(2-amino-3-cyano-spiro[5,6-dihydrocyclopenta[b]thiophene-4,3′-azetidine]-1′-yl)-5-fluoro-2-[[(2R,8S)-2-fluoro-1,2,3,5,6,7-hexahydropyrrolizin-8-yl]methoxy]pyrimidin-4-yl]-3-piperidyl]cyanamide], the IC50 (in assay [1]; against KRAS G12D/RAF1) was 100 to 1000 nM in each case.

Regarding `CN(C)C(=O)c1nn2c(c1Cl)CN(c1nc(OC[C@@]34CCCN3C[C@H](F)C4)nc(N3CC4(C3)c3ccccc3CCC4(F)F)c1C#N)CCC2` [Compound 35, 3-chloro-5-[5-cyano-6-(2′,2′-difluorospiro[azetidine-3,1′-tetralin]-1-yl)-2-[[(2R,8S)-2-fluoro-1,2,3,5,6,7-hexahydropyrrolizin-8-yl]methoxy]pyrimidin-4-yl]-N,N-dimethyl-4,6,7,8-tetrahydropyrazolo[1,5-a][1,4]diazepine-2-carboxamide], the figures for the IC50 (in assay [1]; against KRAS G12D/RAF1) were 1000 to 20000 nM and greater than 100000 nM, respectively.

For the compound `CO/N=C(\C)c1nn2c(c1Cl)CN(c1nc(OC[C@@]34CCCN3C[C@H](F)C4)nc(N3CC4(CCc5sc(N)c(C#N)c54)C3)c1C#N)CCC2` [Compound 20, 2-amino-1′-[6-[3-chloro-2-[(E)-N-methoxy-C-methyl-carbonimidoyl]-4,6,7,8-tetrahydropyrazolo[1,5-a][1,4]diazepin-5-yl]-5-cyano-2-[[(2R,8S)-2-fluoro-1,2,3,5,6,7-hexahydropyrrolizin-8-yl]methoxy]pyrimidin-4-yl]spiro[5,6-dihydrocyclopenta[b]thiophene-4,3′-azetidine]-3-carbonitrile], the IC50 in assay [1] is less than 10 nM; on KRAS G12D/RAF1 it was 1000 to 10000 nM.

The compound `N#Cc1c(N2CCSc3ncccc3C2)nc(OC[C@@]23CCCN2C[C@H](F)C3)nc1N1CC2(CCc3sc(N)c(C#N)c32)C1` [Compound 111, 2-amino-1′-[5-cyano-6-(3,5-dihydro-2H-pyrido[3,2-f][1,4]thiazepin-4-yl)-2-[[(2R,8S)-2-fluoro-1,2,3,5,6,7-hexahydropyrrolizin-8-yl]methoxy]pyrimidin-4-yl]spiro[5,6-dihydrocyclopenta[b]thiophene-4,3′-azetidine]-3-carbonitrile] gave an IC50 in assay [1] of 10 to 100 nM.

In assay [1], `N#Cc1c(N2C[C@H]3CC[C@@H](C2)N3)nc(OCc2n[nH]cc2C(F)F)nc1N1CC2(CCc3sc(N)c(C#N)c32)C1` [Compound 109, 2-amino-1′-[5-cyano-6-[(1R,5S)-3,8-diazabicyclo[3.2.1]octan-3-yl]-2-[[4-(difluoromethyl)-1H-pyrazol-3-yl]methoxy]pyrimidin-4-yl]spiro[5,6-dihydrocyclopenta[b]thiophene-4,3′-azetidine]-3-carbonitrile] registered an IC50 of 10 to 100 nM.

As to `N#Cc1c(N2CCCOCC2)nc(OC[C@@]23CCCN2C[C@H](F)C3)nc1N1CC2(CCc3sc(N)c(C#N)c32)C1` [Compound 110, 2-amino-1′-[5-cyano-2-[[(2R,8S)-2-fluoro-1,2,3,5,6,7-hexahydropyrrolizin-8-yl]methoxy]-6-(1,4-oxazepan-4-yl)pyrimidin-4-yl]spiro[5,6-dihydrocyclopenta[b]thiophene-4,3′-azetidine]-3-carbonitrile], the IC50 in assay [1] fell in the range of 10 to 100 nM.
